Experimental data as given in the NIST ThermoML archive (doi:10.1016/j.jct.2016.06.034).

Assay: mn = molality of the nth substance listed, in mol/kg
Details: for electrical conductivity / speed of sound / mass density: 84.5 kPa, Liquid; for electrical conductivity: Alternating current cell with electrodes; for speed of sound: Frequency=3 MHz, Sing-around technique in a fixed-path interferometer; for mass density: Vibrating tube method; for surface tension liquid-gas: platinum plate method

CCCCCCCCCCn1cc[n+](C)c1.[Br-] [1-decyl-3-methylimidazolium bromide] + O
Details	electrical conductivity [S/m]	mass density [kg/m3]	speed of sound [m/s]	surface tension liquid-gas [mN/m]
298.15 K, m1 = 0.0095	–	997.416	1498.6	–
298.15 K, m1 = 0.01379	–	997.587	1499.5	–
298.15 K, m1 = 0.01652	–	997.693	1500	–
298.15 K, m1 = 0.02179	–	997.899	1500.9	–
298.15 K, m1 = 0.02615	–	998.07	1501.7	–
298.15 K, m1 = 0.03106	–	998.263	1502.5	–
298.15 K, m1 = 0.03338	–	998.353	1502.9	–
298.15 K, m1 = 0.03397	0.283	–	–	–
298.15 K, m1 = 0.03638	0.3	–	–	–
298.15 K, m1 = 0.03819	–	998.54	1503.7	–
298.15 K, m1 = 0.03875	0.317	–	–	–
298.15 K, m1 = 0.04039	0.327	–	–	–
298.15 K, m1 = 0.0406	–	998.636	1503.9	–
298.15 K, m1 = 0.04217	0.338	–	–	–
298.15 K, m1 = 0.04332	–	998.732	1504.2	–
298.15 K, m1 = 0.04391	0.346	–	–	–
298.15 K, m1 = 0.04608	0.354	–	–	–
298.15 K, m1 = 0.04614	–	998.829	1504.4	–
298.15 K, m1 = 0.04825	0.361	–	–	–
298.15 K, m1 = 0.05051	0.368	–	–	–
298.15 K, m1 = 0.0526	0.373	–	–	–
298.15 K, m1 = 0.05487	0.379	–	–	–
298.15 K, m1 = 0.05515	–	999.136	1504.7	–
298.15 K, m1 = 0.05749	0.386	–	–	–
298.15 K, m1 = 0.06017	0.392	–	–	–
298.15 K, m1 = 0.06271	0.398	–	–	–
298.15 K, m1 = 0.06396	–	999.429	1504.8	–
298.15 K, m1 = 0.07815	–	999.895	1504.9	–
298.15 K, m1 = 0.122	–	1001.31	1505.1	–
298.15 K, m1 = 0.1726	–	1002.91	1505.4	–
298.15 K, m1 = 0.2247	–	1004.51	1505.7	–
298.15 K, m1 = 0.2539	–	1005.39	1505.9	–
303.15 K, m1 = 1e-05	0.00018	–	–	–
303.15 K, m1 = 3e-05	0.000342	–	–	–
303.15 K, m1 = 4e-05	0.000511	–	–	–
303.15 K, m1 = 5e-05	0.000676	–	–	–
303.15 K, m1 = 7e-05	0.000835	–	–	–
303.15 K, m1 = 8e-05	0.001	–	–	–
303.15 K, m1 = 0.00015	0.00183	–	–	–
303.15 K, m1 = 0.00023	0.00267	–	–	–
303.15 K, m1 = 0.00038	0.00443	–	–	–
303.15 K, m1 = 0.00053	0.00608	–	–	–
303.15 K, m1 = 0.00082	0.00939	–	–	–
303.15 K, m1 = 0.00142	0.016	–	–	–
303.15 K, m1 = 0.0023	0.0256	–	–	–
303.15 K, m1 = 0.00351	0.0384	–	–	–
303.15 K, m1 = 0.00463	0.0502	–	–	–
303.15 K, m1 = 0.00617	0.0665	–	–	–
303.15 K, m1 = 0.00896	0.0945	–	–	–
303.15 K, m1 = 0.0095	–	996.005	1510.8	–
303.15 K, m1 = 0.01168	0.121	–	–	–
303.15 K, m1 = 0.01379	–	996.169	1511.6	–
303.15 K, m1 = 0.01458	0.148	–	–	–
303.15 K, m1 = 0.01652	–	996.273	1512	–
303.15 K, m1 = 0.01746	0.175	–	–	–
303.15 K, m1 = 0.01986	0.197	–	–	–
303.15 K, m1 = 0.02179	–	996.475	1512.8	–
303.15 K, m1 = 0.02235	0.218	–	–	–
303.15 K, m1 = 0.0248	0.24	–	–	–
303.15 K, m1 = 0.02615	–	996.639	1513.5	–
303.15 K, m1 = 0.0272	0.26	–	–	–
303.15 K, m1 = 0.02958	0.28	–	–	–
303.15 K, m1 = 0.03106	–	996.825	1514.3	–
303.15 K, m1 = 0.03192	0.299	–	–	–
303.15 K, m1 = 0.03338	–	996.912	1514.7	–
303.15 K, m1 = 0.03356	0.312	–	–	–
303.15 K, m1 = 0.0353	0.326	–	–	–
303.15 K, m1 = 0.03765	0.345	–	–	–
303.15 K, m1 = 0.03819	–	997.092	1515.4	–
303.15 K, m1 = 0.03995	0.361	–	–	–
303.15 K, m1 = 0.0406	–	997.186	1515.5	–
303.15 K, m1 = 0.04173	0.373	–	–	–
303.15 K, m1 = 0.04332	–	997.276	1515.8	–
303.15 K, m1 = 0.0437	0.385	–	–	–
303.15 K, m1 = 0.04561	0.393	–	–	–
303.15 K, m1 = 0.04614	–	997.377	1516	–
303.15 K, m1 = 0.0476	0.401	–	–	–
303.15 K, m1 = 0.04986	0.409	–	–	–
303.15 K, m1 = 0.05209	0.416	–	–	–
303.15 K, m1 = 0.05436	0.423	–	–	–
303.15 K, m1 = 0.05515	–	997.672	1516.2	–
303.15 K, m1 = 0.05698	0.43	–	–	–
303.15 K, m1 = 0.0591	0.436	–	–	–
303.15 K, m1 = 0.06148	0.443	–	–	–
303.15 K, m1 = 0.06396	–	997.957	1516.2	–
303.15 K, m1 = 0.07815	–	998.413	1516.2	–
303.15 K, m1 = 0.122	–	999.792	1516.1	–
303.15 K, m1 = 0.1726	–	1001.35	1516	–
303.15 K, m1 = 0.2247	–	1002.91	1516	–
303.15 K, m1 = 0.2539	–	1003.77	1515.9	–
308.15 K, m1 = 1e-05	0.000218	–	–	–
308.15 K, m1 = 3e-05	0.000397	–	–	–
308.15 K, m1 = 4e-05	0.000606	–	–	–
308.15 K, m1 = 7e-05	0.000959	–	–	–
308.15 K, m1 = 0.0001	0.00133	–	–	–
308.15 K, m1 = 0.00013	0.00169	–	–	–
308.15 K, m1 = 0.00017	0.00228	–	–	–
308.15 K, m1 = 0.00024	0.0032	–	–	–
308.15 K, m1 = 0.00039	0.0051	–	–	–
308.15 K, m1 = 0.00069	0.00888	–	–	–
308.15 K, m1 = 0.00098	0.0124	–	–	–
308.15 K, m1 = 0.0014	0.0178	–	–	–
308.15 K, m1 = 0.00242	0.0302	–	–	–
308.15 K, m1 = 0.00326	0.0401	–	–	–
308.15 K, m1 = 0.00348	0.0427	–	–	–
308.15 K, m1 = 0.0063	0.0752	–	–	–
308.15 K, m1 = 0.00691	–	–	–	46.2
308.15 K, m1 = 0.00928	0.108	–	–	–
308.15 K, m1 = 0.0095	–	994.377	1521.3	–
308.15 K, m1 = 0.01212	0.139	–	–	–
308.15 K, m1 = 0.01368	–	–	–	40.98
308.15 K, m1 = 0.01379	–	994.536	1522	–
308.15 K, m1 = 0.01499	0.169	–	–	–
308.15 K, m1 = 0.01652	–	994.638	1522.4	–
308.15 K, m1 = 0.01731	0.193	–	–	–
308.15 K, m1 = 0.01851	–	–	–	39.3
308.15 K, m1 = 0.02003	0.22	–	–	–
308.15 K, m1 = 0.02179	–	994.831	1523.2	–
308.15 K, m1 = 0.02313	0.25	–	–	–
308.15 K, m1 = 0.0251	–	–	–	38.12
308.15 K, m1 = 0.02573	0.275	–	–	–
308.15 K, m1 = 0.02615	–	994.993	1523.7	–
308.15 K, m1 = 0.0282	0.298	–	–	–
308.15 K, m1 = 0.03065	0.321	–	–	–
308.15 K, m1 = 0.03094	–	–	–	37.39
308.15 K, m1 = 0.03106	–	995.17	1524.4	–
308.15 K, m1 = 0.03312	0.343	–	–	–
308.15 K, m1 = 0.03338	–	995.253	1524.7	–
308.15 K, m1 = 0.03447	–	–	–	36.95
308.15 K, m1 = 0.03589	0.367	–	–	–
308.15 K, m1 = 0.03819	–	995.428	1525.4	–
308.15 K, m1 = 0.03832	0.388	–	–	–
308.15 K, m1 = 0.04053	0.406	–	–	–
308.15 K, m1 = 0.0406	–	995.52	1525.5	–
308.15 K, m1 = 0.04063	–	–	–	36.49
308.15 K, m1 = 0.04223	0.419	–	–	–
308.15 K, m1 = 0.04332	–	995.61	1525.8	–
308.15 K, m1 = 0.04385	0.429	–	–	–
308.15 K, m1 = 0.04569	0.439	–	–	–
308.15 K, m1 = 0.04614	–	995.708	1526	–
308.15 K, m1 = 0.0479	–	–	–	36.69
308.15 K, m1 = 0.04793	0.449	–	–	–
308.15 K, m1 = 0.04988	0.457	–	–	–
308.15 K, m1 = 0.05063	–	–	–	37.17
308.15 K, m1 = 0.05219	–	–	–	37.66
308.15 K, m1 = 0.05236	0.466	–	–	–
308.15 K, m1 = 0.05506	–	–	–	37.95
308.15 K, m1 = 0.05515	–	995.996	1526.1	–
308.15 K, m1 = 0.05533	0.477	–	–	–
308.15 K, m1 = 0.05718	0.483	–	–	–
308.15 K, m1 = 0.05941	0.492	–	–	–
308.15 K, m1 = 0.06163	0.498	–	–	–
308.15 K, m1 = 0.06382	0.507	–	–	–
308.15 K, m1 = 0.06396	–	996.274	1526.1	–
308.15 K, m1 = 0.07	–	–	–	38.27
308.15 K, m1 = 0.07815	–	996.719	1526	–
308.15 K, m1 = 0.09792	–	–	–	38.41
308.15 K, m1 = 0.122	–	998.067	1525.6	–
308.15 K, m1 = 0.1694	–	–	–	38.44
308.15 K, m1 = 0.1726	–	999.588	1525.1	–
308.15 K, m1 = 0.2247	–	1001.11	1524.7	–
308.15 K, m1 = 0.2268	–	–	–	38.2
308.15 K, m1 = 0.2539	–	1001.95	1524.4	–
